# Reference: ChEMBL document CHEMBL1201862, “PubChem BioAssay data set” (2004)
#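 Exposure lasted 48 hours, with cells grown in 96-well plates and compounds tested at five concentrations. GI50 marks 50% less growth.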 Activity calls are given as the source filed them. Cut-off read from the data, not from the text of the source: active = GI50 up to about 1.1 µM and inactive = higher.
# How the values were obtained:
# Assay in all cases: growth of human tumour cells (NCI), 48 h
# [1] = test system: 786-0
# [2] = test system: A498
# [3] = test system: A549
# [4] = test system: ACHN
# [5] = test system: BT-549
# [6] = test system: CAKI-1
# [7] = test system: CCRF-CEM
# [8] = test system: COLO 205
# [9] = test system: DU-145
# [10] = test system: EKVX
# [11] = test system: HCC 2998
# [12] = test system: HCT-116
# [13] = test system: HCT-15
# [14] = test system: HL-60
# [15] = test system: HOP-62
# [16] = test system: HOP-92
# [17] = test system: HT-29
# [18] = test system: Hs-578T
# [19] = test system: IGROV-1
# [20] = test system: K562
# [21] = test system: KM12
# [22] = test system: LOX IMVI
# [23] = test system: M14
# [24] = test system: MCF7
# [25] = test system: MDA-MB-231
# [26] = test system: MDA-MB-435
# [27] = test system: MDA-N
# [28] = test system: MOLT-4
# [29] = test system: Malme-3M
# [30] = test system: NCI-H226
# [31] = test system: NCI-H23
# [32] = test system: NCI-H460
# [33] = test system: NCI-H522
# [34] = test system: NCI/ADR-RES
# [35] = test system: OVCAR-3
# [36] = test system: OVCAR-4
# [37] = test system: OVCAR-5
# [38] = test system: OVCAR-8
# [39] = test system: PC-3
# [40] = test system: RPMI-8226
# [41] = test system: RXF 393
# [42] = test system: SF-268
# [43] = test system: SF-295
# [44] = test system: SF-539
# [45] = test system: SK-MEL-28
# [46] = test system: SK-MEL-2
# [47] = test system: SK-MEL-5
# [48] = test system: SK-OV-3
# [49] = test system: SN12C
# [50] = test system: SNB-19
# [51] = test system: SNB-75
# [52] = test system: SR
# [53] = test system: SW-620
# [54] = test system: T47D
# [55] = test system: TK-10
# [56] = test system: U-251
# [57] = test system: UACC-257
# [58] = test system: UACC-62
# [59] = test system: UO-31
# [60] = test system: DLD-1
# [61] = test system: DMS-114
# [62] = test system: DMS-273
# [63] = test system: KM-20L2
# [64] = test system: LXFL 529
# [65] = test system: M19-MEL
# [66] = test system: SNB-78
smiles,measurement,setting,value
CCOC(=O)CCC(NC(=O)C(N)Cc1ccc(N(CCCl)CCCl)cc1)C(=O)OCC (centres undefined),GI50,[1],0.475 µM (active)
same,GI50,[2],32.1 µM (inactive)
same,GI50,[3],2.72 µM (inactive)
same,GI50,[4],0.0532 µM (active)
same,GI50,[5],4.66 µM (inactive)
same,GI50,[6],0.327 µM (active)
same,GI50,[7],< 0.0246 µM (active)
same,GI50,[8],0.735 µM (active)
same,GI50,[9],0.249 µM (active)
same,GI50,[10],2.36 µM (inactive)
same,GI50,[11],0.662 µM (active)
same,GI50,[12],0.375 µM (active)
same,GI50,[13],0.538 µM
same,GI50,[14],0.0665 µM (active)
same,GI50,[15],1.79 µM (inactive)
same,GI50,[16],0.253 µM (active)
same,GI50,[17],0.716 µM (active)
same,GI50,[18],2.24 µM (inactive)
same,GI50,[19],1.17 µM (inactive)
same,GI50,[20],0.446 µM (active)
same,GI50,[21],1.52 µM (inactive)
same,GI50,[22],0.187 µM (active)
same,GI50,[23],0.225 µM (active)
same,GI50,[24],0.377 µM (active)
same,GI50,[25],1.69 µM (inactive)
same,GI50,[26],1.49 µM (inactive)
same,GI50,[27],1.64 µM (inactive)
same,GI50,[28],0.0451 µM (active)
same,GI50,[29],0.234 µM (active)
same,GI50,[30],6.14 µM (inactive)
same,GI50,[31],0.43 µM (active)
same,GI50,[32],0.0406 µM (active)
same,GI50,[33],0.285 µM (active)
same,GI50,[34],1.33 µM (inactive)
same,GI50,[35],0.667 µM (active)
same,GI50,[36],0.624 µM (active)
same,GI50,[37],2.47 µM (inactive)
same,GI50,[38],0.867 µM (active)
same,GI50,[39],1.34 µM (inactive)
same,GI50,[40],1.82 µM (inactive)
same,GI50,[41],0.515 µM (active)
same,GI50,[42],0.592 µM (active)
same,GI50,[43],2.88 µM (inactive)
same,GI50,[44],0.741 µM (active)
same,GI50,[45],0.719 µM (active)
same,GI50,[46],3.01 µM (inactive)
same,GI50,[47],1.5 µM (inactive)
same,GI50,[48],1.3 µM (inactive)
same,GI50,[49],1.51 µM (inactive)
same,GI50,[50],4.09 µM (inactive)
same,GI50,[51],0.733 µM (active)
same,GI50,[52],< 0.0182 µM (active)
same,GI50,[53],1.29 µM (inactive)
same,GI50,[54],0.446 µM (active)
same,GI50,[55],1.31 µM (inactive)
same,GI50,[56],1.85 µM (inactive)
same,GI50,[57],1.22 µM (inactive)
same,GI50,[58],0.34 µM (active)
same,GI50,[59],0.675 µM (active)
Cc1cn2c(=O)c3ccccc3nc2s1,GI50,[1],> 100 µM (inactive)
same,GI50,[2],> 100 µM (inactive)
same,GI50,[3],> 100 µM (inactive)
same,GI50,[4],> 100 µM (inactive)
same,GI50,[6],> 100 µM (inactive)
same,GI50,[7],> 100 µM (inactive)
same,GI50,[8],> 100 µM (inactive)
same,GI50,[60],> 100 µM (inactive)
same,GI50,[61],> 100 µM (inactive)
same,GI50,[62],> 100 µM (inactive)
same,GI50,[10],> 100 µM (inactive)
same,GI50,[11],> 100 µM (inactive)
same,GI50,[12],> 100 µM (inactive)
same,GI50,[14],> 100 µM (inactive)
same,GI50,[15],> 100 µM (inactive)
same,GI50,[16],> 100 µM (inactive)
same,GI50,[17],> 100 µM (inactive)
same,GI50,[19],> 100 µM (inactive)
same,GI50,[20],> 100 µM (inactive)
same,GI50,[63],> 100 µM (inactive)
same,GI50,[21],> 100 µM (inactive)
same,GI50,[22],> 100 µM (inactive)
same,GI50,[64],> 100 µM (inactive)
same,GI50,[23],> 100 µM (inactive)
same,GI50,[65],> 100 µM (inactive)
same,GI50,[28],> 100 µM (inactive)
same,GI50,[29],> 100 µM (inactive)
same,GI50,[30],> 100 µM (inactive)
same,GI50,[31],> 100 µM (inactive)
same,GI50,[32],> 100 µM (inactive)
same,GI50,[33],> 100 µM (inactive)
same,GI50,[35],> 100 µM (inactive)
same,GI50,[36],76.6 µM (inactive)
same,GI50,[37],> 100 µM (inactive)
same,GI50,[38],> 100 µM (inactive)
same,GI50,[40],> 100 µM (inactive)
same,GI50,[41],> 100 µM (inactive)
same,GI50,[42],> 100 µM (inactive)
same,GI50,[43],> 100 µM (inactive)
same,GI50,[44],88.7 µM (inactive)
same,GI50,[45],> 100 µM (inactive)
same,GI50,[46],> 100 µM (inactive)
same,GI50,[47],> 100 µM (inactive)
same,GI50,[48],> 100 µM (inactive)
same,GI50,[49],> 100 µM (inactive)
same,GI50,[50],> 100 µM (inactive)
same,GI50,[51],92.3 µM (inactive)
same,GI50,[66],> 100 µM (inactive)
same,GI50,[52],> 100 µM (inactive)
same,GI50,[53],> 100 µM (inactive)
same,GI50,[55],> 100 µM (inactive)
same,GI50,[56],> 100 µM (inactive)
same,GI50,[57],> 100 µM (inactive)
same,GI50,[58],> 100 µM (inactive)
same,GI50,[59],> 100 µM (inactive)
